{"source": "patent US9895344B2", "about": "“Treating various disorders with 7,8-dihydroxyflavone and derivatives thereof” (EMORY UNIVERSITY, priority 2008, dated 2018)", "key": {"[1]": {"system": "caspase-3 activation", "test": "Active caspase-3 ELISA in glutamate-treated cortical neurons", "assay_type": "cell-based, rat", "conditions": "50 μM glutamate for 16 hours", "method": "To quantitatively compare the anti-apoptotic activity of 7,8-DHF and 4′-DMA-7,8-DHF, cortical neurons were prepared from E16 rat embryonic cells and pretreated with various indicated concentrations of 4′-DMA-7,8-DHF and 7,8-DHF for 30 min, followed by 50 μM glutamate for 16 hours. The cell lysates were quantitatively analyzed with an active caspse-3 ELISA."}, "[2]": {"target": "TrkA (Mus musculus, UniProt Q3UFB7)", "sequence (Q3UFB7 34-799)": "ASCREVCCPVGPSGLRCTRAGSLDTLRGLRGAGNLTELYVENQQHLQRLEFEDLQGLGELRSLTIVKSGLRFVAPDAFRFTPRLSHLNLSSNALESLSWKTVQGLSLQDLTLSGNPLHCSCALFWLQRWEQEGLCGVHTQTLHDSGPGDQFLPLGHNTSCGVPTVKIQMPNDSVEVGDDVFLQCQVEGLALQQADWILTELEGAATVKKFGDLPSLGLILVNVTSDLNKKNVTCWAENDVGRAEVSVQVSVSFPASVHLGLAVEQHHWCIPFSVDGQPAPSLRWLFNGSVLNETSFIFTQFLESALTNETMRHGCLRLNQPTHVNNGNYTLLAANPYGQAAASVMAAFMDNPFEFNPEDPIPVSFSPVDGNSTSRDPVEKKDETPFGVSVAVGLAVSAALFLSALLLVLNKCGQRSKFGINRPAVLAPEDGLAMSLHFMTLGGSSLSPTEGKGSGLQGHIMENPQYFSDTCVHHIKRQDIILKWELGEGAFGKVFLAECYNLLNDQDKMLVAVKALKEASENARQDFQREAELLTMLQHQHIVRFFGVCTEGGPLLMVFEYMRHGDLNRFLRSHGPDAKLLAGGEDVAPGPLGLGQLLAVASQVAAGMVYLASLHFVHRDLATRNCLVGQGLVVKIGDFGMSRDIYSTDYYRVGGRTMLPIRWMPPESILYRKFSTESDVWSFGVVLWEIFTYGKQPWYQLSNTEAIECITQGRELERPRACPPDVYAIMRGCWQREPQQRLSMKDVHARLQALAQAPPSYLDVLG", "test": "Immunoblotting of brain lysates from forced swim test mice: TrkA", "assay_type": "in vivo", "parameters": "from tissue; host or cells: mouse brain", "conditions": "5 mg/kg, 21 days oral, anti-p-TrkA 794, FIG. 35", "method": "(§1) To explore whether 4′-DMA-7,8-DHF and 7,8-DHF have any antidepressant effect, a forced swim test (6 minutes, immobility recorded in the last 4 minutes) was conducted after chronic treatment of male C57BL/6J mice (8 mice/group) for 21 days via oral injection."}, "[3]": {"system": "immobility time", "test": "Forced swim test in TrkB F616A knockin mice with saline or 1NMPP1 pretreatment", "assay_type": "in vivo", "conditions": "drugs for five days, FIG. 36", "method": "To assess whether the behavior responses by 7,8-DHF and its derivative are mediated by TrkB receptor, TrkB F616A knockin mice were utilized. The transgenic mice were subjected to saline or 1NMPP1 pretreatment (25 μM), respectively (drinking water provided one day prior to drug injection and maintained throughout whole experiment). The control and/or drugs were provided for five days. […] (Data presented in FIGS. 34, 35, and 36 as mean±SEM; *p<0.05 against vehicle, #P<0.01 against vehicle and ***P<0.0001 against vehicle, student t-test.)"}, "[4]": {"target": "T1, TrkB (Rattus norvegicus, UniProt Q63604)", "T1 sequence (Q63604 32-821)": "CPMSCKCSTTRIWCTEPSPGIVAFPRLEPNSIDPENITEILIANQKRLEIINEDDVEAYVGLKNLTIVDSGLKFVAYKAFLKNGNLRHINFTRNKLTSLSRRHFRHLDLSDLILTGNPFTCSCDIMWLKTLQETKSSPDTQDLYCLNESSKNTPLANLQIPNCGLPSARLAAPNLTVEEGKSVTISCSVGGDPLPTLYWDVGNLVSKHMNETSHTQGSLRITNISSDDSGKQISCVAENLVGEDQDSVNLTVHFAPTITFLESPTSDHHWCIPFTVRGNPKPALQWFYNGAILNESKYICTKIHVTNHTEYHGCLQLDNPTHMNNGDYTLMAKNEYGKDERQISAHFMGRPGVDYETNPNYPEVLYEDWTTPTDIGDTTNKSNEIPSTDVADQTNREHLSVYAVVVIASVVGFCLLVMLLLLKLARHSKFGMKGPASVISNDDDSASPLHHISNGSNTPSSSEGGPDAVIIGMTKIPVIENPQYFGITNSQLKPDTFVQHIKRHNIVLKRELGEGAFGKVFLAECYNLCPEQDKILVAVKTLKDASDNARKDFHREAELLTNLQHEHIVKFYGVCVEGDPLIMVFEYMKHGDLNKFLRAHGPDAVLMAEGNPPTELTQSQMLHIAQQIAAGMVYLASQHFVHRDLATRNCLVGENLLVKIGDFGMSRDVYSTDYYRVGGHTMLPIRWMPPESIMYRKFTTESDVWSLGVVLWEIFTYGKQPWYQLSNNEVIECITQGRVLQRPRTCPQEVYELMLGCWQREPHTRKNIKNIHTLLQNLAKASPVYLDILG", "test": "TrkB activation in primary cortical neurons (p-TrkB Y817 immunoblotting)", "assay_type": "cell-based", "parameters": "endogenous in cells; host or cells: primary cortical neurons", "method": "Primary cultured rat cortical neurons were prepared as follows. E17 rat pups were decapitated and cortex was extirpated, cross chopped, and suspended by pipetting for separation in 5% fetal calf serum (FCS), 5% horse serum (HS) DMEM. The cell suspension was then centrifuged at 250×g for 5 minutes. This operation was repeated again. Cells were seeded into polyethyleneimine-coated 10 cm^2 dishes and 12-well plates including coated-coverslips and incubated at 37° C. in 5% CO2/95% air. After 3 hours, the culture medium was changed to Neurobasal containing B-27 supplement (Invitrogen; Carlsbad, Calif.) and incubated for 4 days. For maintenance, half of the culture medium was changed to fresh Neurobasal/B27 every 4 days. After 1 week, the dished cultured neurons were ready for use.\nTo compare the TrkB activation by the synthetic compounds of Examples 9 and 10 (see FIG. 26), primary cortical cultures were prepared. The cortical neurons were treated with 500 nM of various compounds for 30 min and collected the cell lysates. […] Replacing the H-bond acceptor O atom with hydrogen bond donor NH reduced its stimulatory effect. […] In comparison, 7,8-DHF provoked TrkB activation with the minimal concentration of 100 nM (FIG. 27, right panels)."}, "[5]": {"system": "KA-induced neuronal apoptosis", "test": "Kainic acid time course assay, oral TrkB agonists (caspase-3 immunoblot of brain lysates)", "assay_type": "in vivo, C57BL/6J mice", "conditions": "1 mg/kg orally, KA 20 mg/kg i.p., FIG. 30 left", "method": "Male C57BL/6 mice age 60 days were orally injected with a single dose of 4′-DMA-7,8-DHF or 7,8-DHF (1 mg/kg each). KA (20 mg/kg) was i.p. injected. Animals were continually monitored for 2 hours for the onset of seizure activity. At 0, 4 and 8 hours following TrkB agonist treatment, the animals were sacrificed and the brain lysates were analyzed by immunoblotting with p-TrkB-Y817, active caspase-3 and total TrkB antibodies.\nTo investigate whether these compounds exert any neuroprotective effects in animals, a time course assay was conducted."}, "[6]": {"system": "KA-induced caspase-3 activation", "test": "KA-induced neuronal cell death in TrkB F616A mice, oral TrkB agonists", "assay_type": "in vivo, TrkB F616A knock-in mice", "method": "TrkB F616A knockin mice (2-3 months old) were fed 1NMPP1 (25 μM) in drinking water one day before pharmacological reagent treatment. The next day, the mice were orally injected with 7,8-DHF or 4′-DMA-7,8-DHF (5 mg/kg) 4 hours before kainic acid (20 mg/kg). The control mice were injected with saline, 1NMPP1, kainic acid alone or administrated 7,8-DHF or 4′-DMA-7,8-DHF 4 hours before kainic acid. In 4 days, the mice were sacrificed and brains were homogenized and ultra-centrifuged. The supernatant (40 μg) was employed for SDS-PAGE and immunoblotting analysis with indicated antibodies, respectively.\nTo explore whether the neuroprotective effect of these small molecules is dependent on TrkB activation in vivo, TrkB F616A knock-in mice were used."}, "[7]": {"target": "T2, TrkB (Mus musculus, UniProt P15209)", "T2 construct": "from tissue; host or cells: mouse brain", "T2 sequence (P15209 32-821)": "as the sequence (Q63604 32-821) above, with M3T, T9S, T10A, I32V, K63R, G84S, T153M, I185L, T394S, N770S counted along it", "test": "Immunoblotting of brain lysates from forced swim test mice: TrkB", "assay_type": "in vivo", "conditions": "5 mg/kg, 21 days oral, anti-p-TrkB 817, FIG. 35", "method": "as §1"}, "[8]": {"system": "immobility", "test": "Forced swim test after 21 days oral treatment", "assay_type": "in vivo, C57BL/6J mice", "conditions": "5 mg/kg, oral injection, FIG. 34", "method": "Adult male mice (2-3 months old) were randomly submitted to a forced swim test without a pre-swim. Saline, 4′-DMA-7,8-DHF and 7,8-DHF (5 mg/kg) were orally injected for 21 days. The mice were allowed to adapt to the test room for 2 days. The mice were placed in a clear glass cylinder with a diameter of 16 cm, half-filled with clear water at 24° C.\nas §1"}, "[9]": {"test": "Toxicity after 3-week chronic treatment (organ pathology, complete blood count)", "assay_type": "in vivo, mice", "conditions": "mouse, in vivo", "method": "To explore whether 4′-dimethylamino-7,8-dihydroxyflavone and 7,8-dihydroxyflavone have any intolerable toxicity, the major organs from mice treated with both compounds at 5 mg/kg/day for 3 weeks were analyzed."}, "[10]": {"target": "T2, TrkB", "test": "Time course of TrkB activation in mouse brain", "assay_type": "in vivo, C57BL/6J mice", "method": "To compare the stimulatory effect on TrkB receptor in mouse brain, 1 mg/kg of these compounds was injected into C57BL/6J mice and monitored TrkB activation at different time points (see FIG. 28). […] In contrast, 7,8-DHF triggered TrkB activation 2 h after oral injection and peaked at 4 h and TrkB activity progressively faded away. The TrkB activity was demonstrable even at 16 h (FIG. 28)."}, "[11]": {"system": "progenitor proliferation in hippocampus", "test": "Neurogenesis analysis in hippocampus (BrdU)", "assay_type": "in vivo, C57BL/6J mice", "conditions": "5 mg/kg daily for 21 days, compared to vehicle control, FIGS. 32 and 33", "method": "Adult male mice (2-3 months old) were orally injected with saline, 4′-DMA-7,8-DHF and 7,8-DHF (5 mg/kg) for 21 days. Then BrdU (50 mg/kg) was i.p. injected. In 2 hours, the mice were perfused with 4% paraformaldehyde. Immunohistochemical staining was performed on formalin-fixed paraffin-embedded sections. Sections from brain were cut, deparaffinized in xylene and rehydrated in graded alcohols. The slides were boiled in 10 mM citric acid (pH 6.0) for 10 minutes followed by an incubation in 2 N HCl for 10 minutes in room temperature. The slides were then permeabilized and blocked with 1% BSA in 0.2% PBST. The incorporated BrdU were stained using anti-BrdU-FITC (Abcam, Inc; Cambridge, Mass.) at 4° C. for 16 hours. After three washes in PBS, the cells were stained with DAPI for another 10 minutes at room temperature. The slides were mounted with AquaMount (Lerner Laboratories; Pittsburgh, Pa.) containing 0.01% 1,4-diazobicyclo(2,2,2)octane and examined under a fluorescence microscope.\nTo test whether increasing TrkB activation by 4′-dimethylamino-7,8-dihydroxyflavone would elevate neurogenesis, adult male C57BL/6J mice were injected daily for 21 days with either vehicle, 7,8-DHF, or 4′-DMA-7,8-DHF (5 mg/kg). At the end of treatment (day 21), the animals were injected with BrdU (50 mg/kg, i.p.) to label the dividing cells and were sacrificed 2 hours later. […]"}, "[12]": {"target": "T1, TrkB", "test": "Western analysis of TrkB activation in hippocampal neurons", "assay_type": "cell-based", "parameters": "endogenous in cells; host or cells: primary hippocampal neurons", "conditions": "FIG. 10", "method": "To further examine whether 7,8-dihydroxyflavone can stimulate TrkB-mediated downstream signaling cascades, Western analysis was performed.\nTo further test that the stimulatory effect of 7,8-dihydroxyflavone is mediated through TrkB, cells were either untreated or treated with K252a, a selective inhibitor of the tyrosine kinase activity of the Trk family of neutrophin receptors."}, "[13]": {"target": "T3, TrkB F616A (Mus musculus, UniProt P15209, F616A)", "T3 construct": "endogenous in cells; host or cells: cortical neurons of TrkB F616A knock-in mice", "T3 sequence (P15209 32-821 F616A)": "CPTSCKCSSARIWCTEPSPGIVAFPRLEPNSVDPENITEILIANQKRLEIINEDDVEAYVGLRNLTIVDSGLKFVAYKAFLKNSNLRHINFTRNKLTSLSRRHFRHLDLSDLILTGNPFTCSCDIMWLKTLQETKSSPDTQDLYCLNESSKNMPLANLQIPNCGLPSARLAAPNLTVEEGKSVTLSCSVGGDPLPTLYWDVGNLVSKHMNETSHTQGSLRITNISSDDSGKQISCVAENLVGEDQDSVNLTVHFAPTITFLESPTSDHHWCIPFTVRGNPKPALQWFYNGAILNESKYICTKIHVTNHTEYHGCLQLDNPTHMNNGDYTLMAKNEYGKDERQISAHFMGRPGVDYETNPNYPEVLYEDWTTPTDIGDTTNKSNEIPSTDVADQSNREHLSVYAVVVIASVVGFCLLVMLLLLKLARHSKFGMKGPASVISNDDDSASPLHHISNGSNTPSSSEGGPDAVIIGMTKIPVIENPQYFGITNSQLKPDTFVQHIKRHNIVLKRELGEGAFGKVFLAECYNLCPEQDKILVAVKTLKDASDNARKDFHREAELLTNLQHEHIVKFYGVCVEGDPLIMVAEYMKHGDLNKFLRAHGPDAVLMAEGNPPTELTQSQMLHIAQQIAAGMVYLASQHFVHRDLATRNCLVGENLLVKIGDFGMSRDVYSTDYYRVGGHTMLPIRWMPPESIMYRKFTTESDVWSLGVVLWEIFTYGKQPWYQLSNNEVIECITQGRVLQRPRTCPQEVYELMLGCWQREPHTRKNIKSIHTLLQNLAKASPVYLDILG", "test": "TrkB phosphorylation in cortical neurons from TrkB F616A knockin mice", "assay_type": "cell-based", "conditions": "inhibitor 100 nM, pretreated 30 minutes", "method": "(§2) To explore whether the neuroprotective action of 7,8-dihydroxyflavone is dependent on TrkB activation in vivo, TrkB F616A knockin mice were used. […] To further assess whether 7,8-dihydroxyflavone can mimic BDNF, cortical neurons were prepared from TrkB F616A knockin mice. The cortical neurons were pretreated for 30 minutes with either K252a Trk tyrosine kinase inhibitor (100 nM) or 1NMPP1 inhibitor (100 nM) followed by 0.5 μM 7,8-dihydroxyflavone for 30 minutes."}, "[14]": {"system": "Akt and Erk1/2", "test": "Akt and Erk1/2 activation in cortical neurons from TrkB F616A knockin mice", "assay_type": "cell-based", "conditions": "inhibitor 100 nM", "method": "as §2"}, "[15]": {"conditions": "1 mg/kg, oral injection, FIG. 28"}}}
{"smiles": "CN(C)c1ccc(-c2cc(=O)c3ccc(O)c(O)c3o2)cc1", "note": "[4′-DMA-7,8-DHF, 4′-Dimethylamino-7,8-dihydroxyflavone]", "values": [{"measurement": "inhibitory effect on caspase-3 activation at 10 nM", "setting": "[1]; 10 nM", "value": "more robust inhibitory effect than 7,8-DHF"}, {"measurement": "Glutamate-provoked caspase-3 activation", "setting": "[1]; 50 nM or higher concentrations, FIG. 29", "value": "substantially blocked"}, {"measurement": "TrkA activation in mouse brain", "setting": "[2]", "value": "not TrkA activation"}, {"measurement": "immobility time after 1NMPP1 treatment", "setting": "[3]; 1NMPP1 25 μM in drinking water", "value": "neither 4′-DMA-7,8-DHF nor 7,8-DHF had any significant effect"}, {"measurement": "immobility time, saline group", "setting": "[3]", "value": "substantially reduced the immobility time"}, {"measurement": "TrkB activation", "setting": "[4]; 500 nM, 30 min, FIG. 27 left", "value": "robustly provoked TrkB activation"}, {"measurement": "minimal concentration triggering TrkB activation (titration assay)", "setting": "[4]; FIG. 27 right", "value": 10, "unit": "nM"}, {"measurement": "KA-induced neuronal apoptosis over time", "setting": "[5]", "value": "gradually decreased"}, {"measurement": "KA-caused caspase-3 activation", "setting": "[6]; 5 mg/kg orally 4 hours before kainic acid (20 mg/kg), FIG. 31", "value": "markedly diminished"}, {"measurement": "protective effect after 1NMPP1 pretreatment", "setting": "[6]; 1NMPP1 (25 μM) in drinking water, FIG. 31 top", "value": "abolished"}, {"measurement": "TrkB phosphorylation after 1NMPP1 pretreatment", "setting": "[6]; FIG. 31, 2nd panel", "value": "notably blocked"}, {"measurement": "TrkB activation in mouse brain", "setting": "[7]", "value": "provoke TrkB"}, {"measurement": "swimming immobility", "setting": "[8]", "value": "evidently reduced the immobility"}, {"measurement": "complete blood count (CBC) versus control saline-treated mice", "setting": "[9]", "value": "no significant difference"}, {"measurement": "toxicity to the mice", "setting": "[9]", "value": "neither compound was toxic"}, {"measurement": "TrkB activity at 16 h", "setting": "[10]; [15]", "value": "partially decayed"}, {"measurement": "time at which TrkB activation was elicited", "setting": "[10]; [15]", "value": 1, "unit": "h"}, {"measurement": "time at which TrkB activity peaked", "setting": "[10]; [15]", "value": 8, "unit": "h"}, {"measurement": "agonistic effect on TrkB relative to 7,8-DHF", "setting": "[10]; mouse, in vivo", "value": "about 10 fold"}, {"measurement": "duration of agonistic effect in animals relative to 7,8-DHF", "setting": "[10]; mouse, in vivo", "value": "sustained longer"}, {"measurement": "neurogenesis (BrdU)", "setting": "[11]", "value": "increased neurogenesis"}]}
{"smiles": "COC(=O)[C@@]1(O)C[C@H]2O[C@]1(C)n1c3ccccc3c3c4c(c5c6ccccc6n2c5c31)C(=O)NC4", "note": "[K252a]", "values": [{"measurement": "effect on TrkB tyrosine phosphorylation in cells exposed to 7,8-dihydroxyflavone", "setting": "[12]", "value": "blocked TrkB tyrosine phosphorylation"}, {"measurement": "blocking of BDNF-provoked TrkB phosphorylation", "setting": "[13]", "value": "not"}, {"measurement": "blocking of 7,8-dihydroxyflavone-provoked TrkB phosphorylation", "setting": "[13]; 0.5 μM 7,8-dihydroxyflavone", "value": "not"}, {"measurement": "blocking of BDNF-triggered Akt and Erk1/2 activation", "setting": "[14]", "value": "not"}]}
